Measured values reported in US20150197492A1, “NOVEL INDENO[1,2-c]QUINOLIN-11-ONE DERIVATIVES, PREPARATION METHOD AND APPLICATION THEREOF” (National Defense Medical Center, priority 2014, published 2015).

Columns and labels:
Assay type in all cases: cell-based
KM12 = experiment: cells; conditions: KM12 (Colon Cancer), 10 μM, 48 hours
K-562 = experiment: cells; conditions: K-562 (Leukemia), 10 μM, 48 hours
HCT-116 = experiment: cells; conditions: HCT-116 (Colon Cancer), 10 μM, 48 hours
HOP-92 = experiment: cells; conditions: HOP-92 (Non-Small Cell Lung Cancer), 10 μM, 48 hours
NCI/ADR-RES = experiment: cells; conditions: NCI/ADR-RES (Ovarian Cancer), 10 μM, 48 hours
MDA-MB-468 = experiment: cells; conditions: MDA-MB-468 (Breast Cancer), 10 μM, 48 hours
LOX IMVI = experiment: cells; conditions: LOX IMVI (Melanoma), 10 μM, 48 hours
OVCAR-5 = experiment: cells; conditions: OVCAR-5 (Ovarian Cancer), 10 μM, 48 hours
COLO 205 = experiment: cells; conditions: COLO 205 (Colon Cancer), 10 μM, 48 hours
PC-3 = experiment: cells; conditions: PC-3 (Prostate Cancer), 10 μM, 48 hours
HCC-2998 = experiment: cells; conditions: HCC-2998 (Colon Cancer), 10 μM, 48 hours
EKVX = experiment: NCI cancer cell cytotoxicity assay, Non-Small Cell Lung Cancer EKVX; conditions: 10 μM, 48 hours
HCT-15 = experiment: cells; conditions: HCT-15 (Colon Cancer), 10 μM, 48 hours
SK-MEL-2 = experiment: cells; conditions: SK-MEL-2 (Melanoma), 10 μM, 48 hours
MALME-3M = experiment: cells; conditions: MALME-3M (Melanoma), 10 μM, 48 hours
UO-31 = experiment: cells; conditions: UO-31 (Renal Cancer), 10 μM, 48 hours
NCI-H226 = experiment: cells; conditions: NCI-H226 (Non-Small Cell Lung Cancer), 10 μM, 48 hours
UACC-62 = experiment: cells; conditions: UACC-62 (Melanoma), 10 μM, 48 hours
HT29 = experiment: cells; conditions: HT29 (Colon Cancer), 10 μM, 48 hours
M14 = experiment: cells; conditions: M14 (Melanoma), 10 μM, 48 hours
HS 578T = experiment: cells; conditions: HS 578T (Breast Cancer), 10 μM, 48 hours
T-47D = experiment: cells; conditions: T-47D (Breast Cancer), 10 μM, 48 hours
RPMI-8226 = experiment: cells; conditions: RPMI-8226 (Leukemia), 10 μM, 48 hours
NCI-H322M = experiment: cells; conditions: NCI-H322M (Non-Small Cell Lung Cancer), 10 μM, 48 hours
OVCAR-8 = experiment: cells; conditions: OVCAR-8 (Ovarian Cancer), 10 μM, 48 hours
MOLT-4 = experiment: cells; conditions: MOLT-4 (Leukemia), 10 μM, 48 hours
SF-539 = experiment: cells; conditions: SF-539 (CNS Cancer), 10 μM, 48 hours
RXF 393 = experiment: cells; conditions: RXF 393 (Renal Cancer), 10 μM, 48 hours
OVCAR-3 = experiment: cells; conditions: OVCAR-3 (Ovarian Cancer), 10 μM, 48 hours
SNB-75 = experiment: cells; conditions: SNB-75 (CNS Cancer), 10 μM, 48 hours
SF-268 = experiment: cells; conditions: SF-268 (CNS Cancer), 10 μM, 48 hours
SN12C = experiment: cells; conditions: SN12C (Renal Cancer), 10 μM, 48 hours

O=C1c2cc(Cl)ccc2-c2c(Cl)nc3ccccc3c21 [TC-XCl-1, 6,9-Dichloro-11H-indeno[1,2-c]quinolin-11-one]
growth percentage (KM12): 111.92% | growth percentage (K-562): 102.16% | growth percentage (HCT-116): 105.87% | growth percentage (HOP-92): 71.94% | growth percentage (NCI/ADR-RES): 96.78% | growth percentage (MDA-MB-468): 107.92% | growth percentage (LOX IMVI): 84.23% | growth percentage (OVCAR-5): 137.00% | growth percentage (COLO 205): 99.18% | growth percentage (PC-3): 92.73% | growth percentage (HCC-2998): 98.52% | growth percentage (EKVX): 79.27% | growth percentage (HCT-15): 114.88% | growth percentage (SK-MEL-2): 117.11% | growth percentage (MALME-3M): 102.06% | growth percentage (UO-31): 80.62% | growth percentage (NCI-H226): 91.86% | growth percentage (UACC-62): 94.45% | growth percentage (HT29): 104.27% | growth percentage (M14): 109.79% | growth percentage (HS 578T): 91.01% | growth percentage (T-47D): 86.97% | growth percentage (RPMI-8226): 92.83% | growth percentage (NCI-H322M): 95.38% | growth percentage (OVCAR-8): 101.08% | growth percentage (MOLT-4): 70.83% | growth percentage (SF-539): 110.08% | growth percentage (RXF 393): 112.80% | growth percentage (OVCAR-3): 119.93% | growth percentage (SNB-75): 82.91% | growth percentage (SF-268): 117.27% | growth percentage (SN12C): 88.03%
